Experimental data published in article PMC3933693, “Novel Inhibitors of Mitochondrial sn-Glycerol 3-phosphate Dehydrogenase” (PLoS ONE, 2014).

Assays:
[1] = tested on: skeletal muscle mitochondria; test: Mitochondrial membrane potential (ΔΨm, TMRM) powered by glutamate plus malate; type: biochemical, rat
[2] = target: T1, flavin site of complex II (site IIF) (Rattus norvegicus, UniProt Q920L2); test: Site-specific H2O2 production from site IIF in skeletal muscle mitochondria; type: biochemical; conditions: primary screen, ∼2.5 µM, average of duplicates; palmitoylcarnitine
T1 construct: from tissue; host or cells: skeletal muscle mitochondria
Protocol: (§1) Superoxide was measured as H2O2 after dismutation by endogenous or exogenous superoxide dismutase. Rates of total superoxide/H2O2 production were measured fluorimetrically using Amplex UltraRed in the presence of exogenous superoxide dismutase and horseradish peroxidase in a Varian Cary Eclipse fluorimeter as previously described. Rates of production from specific sites were determined as previously described using the following eight conditions: flavin mononucleotide site of complex I (site IF) plus matrix NAD-linked dehydrogenases (collectively "site IF/DH") with 5 mM glutamate, 5 mM malate, and 4 µM rotenone; ubiquinone-binding site of complex I (site IQ) with either 0.5 or 5 mM succinate; flavin site of complex II (site IIF) with either 15 µM palmitoylcarnitine, 2.5 µM antimycin A, and 2 µM myxothiazol or 0.5 mM succinate, 4 µM rotenone, 2.5 µM antimycin A, and 2 µM myxothiazol, [31]; mGPDH with 1.7 mM glycerol phosphate, 4 µM rotenone, 2.5 µM antimycin A, 2 µM myxothiazol, 1 mM malonate, and 250 nM free calcium; outer ubiquinone-binding site of complex III (site IIIQo) with either 0.5 or 5 mM succinate, 4 µM rotenone and 2.5 µM antimycin A [32]. Candidate small-molecule inhibitors were added prior to the start of measurements and H2O2 calibration curves were performed in the presence of tested compounds.
(§2) 3,200 compounds were tested initially at 2.5 µM (0.025% DMSO final) in duplicate on different plates against a panel of five distinct assays of site-specific superoxide/H2O2 production as described in the previous section with minor changes. […] Endpoint fluorescence was measured on a Perkin Elmer Victor V3 fluorescent plate reader. The fluorescence intensity of each well was normalized as % change from the average of eight DMSO controls on the same plate. Duplicate wells of each of four modulators of mitochondrial metabolism known to inhibit specific sites of superoxide/H2O2 production were included on each plate as positive controls and the resulting fluorescence levels set as −100% change from DMSO controls. Known inhibitors included 20 mM aspartate (for site IF/DH), 1 µM FCCP (for site IQ), 10 mM malonate (for site IIF), and 2 µM myxothiazol (for site IIIQo). The background fluorescence of the FCCP wells in the site IQ assay was used to normalize mGPDH plates run in parallel. To minimize position-dependent effects across each assay plate, Tukey’s two-way median polish was applied to fluorescence values after initial normalization, [36]. Tukey’s polish is an iterative subtraction of the median row and column values from each well’s given row or column. The procedure is repeated until sequential medians for each row and column are zero and positional gradients in fluorescence are eliminated.

[3] = tested on: skeletal muscle mitochondria; test: Mitochondrial membrane potential (ΔΨm, TMRM) powered by glycerol phosphate; type: biochemical, rat; conditions: 80 μM; 16.7 mM glycerol phosphate, 4 µM rotenone, nigericin
[4] = tested on: ubiquinone-binding site of complex I (site IQ); test: Site-specific H2O2 production from site IQ in skeletal muscle mitochondria; type: biochemical, rat; conditions: 5 mM succinate;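 note: H2O2 from superoxide detected by Amplex UltraRed fluorescence with added superoxide dismutase and horseradish peroxidase, endpoint read 30–40 min after substrate addition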
[5] = target: T2, outer ubiquinone-binding site of complex III (site IIIQo) (Rattus norvegicus, UniProt P00159+P20788); test: Site-specific H2O2 production from site IIIQo in skeletal muscle mitochondria; type: biochemical; conditions: primary screen, ∼2.5 µM, average of duplicates; 5 mM succinate
T2 construct: from tissue; host or cells: skeletal muscle mitochondria
Protocol: as §1, §2

mGPDH = target: T3, mGPDH (Rattus norvegicus, UniProt P35571); test: Superoxide/H2O2 production by mGPDH in isolated skeletal muscle mitochondria (Amplex UltraRed); type: biochemical
T3 construct: Activity of mGPDH in frozen-thawed skeletal muscle mitochondria was measured; from tissue; host or cells: skeletal muscle mitochondria
T3 sequence (P35571 43-727): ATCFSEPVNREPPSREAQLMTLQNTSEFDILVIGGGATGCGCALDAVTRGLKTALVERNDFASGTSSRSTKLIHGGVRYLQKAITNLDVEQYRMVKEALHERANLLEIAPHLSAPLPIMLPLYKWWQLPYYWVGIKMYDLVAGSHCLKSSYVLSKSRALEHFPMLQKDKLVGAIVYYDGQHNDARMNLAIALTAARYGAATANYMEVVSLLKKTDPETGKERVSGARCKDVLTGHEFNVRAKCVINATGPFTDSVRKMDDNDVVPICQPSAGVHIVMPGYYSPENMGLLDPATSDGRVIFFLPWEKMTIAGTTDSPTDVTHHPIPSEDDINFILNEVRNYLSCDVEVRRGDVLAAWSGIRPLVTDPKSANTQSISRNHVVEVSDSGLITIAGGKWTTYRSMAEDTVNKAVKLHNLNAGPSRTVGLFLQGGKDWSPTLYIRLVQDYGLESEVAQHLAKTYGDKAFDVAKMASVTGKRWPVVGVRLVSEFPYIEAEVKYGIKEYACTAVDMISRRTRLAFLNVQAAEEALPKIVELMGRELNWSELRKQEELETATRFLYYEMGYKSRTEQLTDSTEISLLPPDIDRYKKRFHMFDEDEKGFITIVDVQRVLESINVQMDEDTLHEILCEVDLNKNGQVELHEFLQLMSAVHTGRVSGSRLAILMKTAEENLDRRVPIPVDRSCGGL

[6] = tested on: flavin mononucleotide site of complex I (site IF) plus matrix NAD-linked dehydrogenases (site IF/DH); test: Site-specific H2O2 production from site IF/DH in skeletal muscle mitochondria; type: biochemical, rat; conditions: primary screen, ∼2.5 µM, average of duplicates
Protocol: as §1, §2

cortical synaptosomes = test: Synaptosomal respiration (Seahorse XF24); type: cell-based, mouse; conditions: 100 µM iGP-1, 0.5 mM aminooxyacetate
Protocol: Synaptosomal respiration was tested in the Seahorse XF24 using published protocols, [41]. Synaptosomes (20 or 25 µg protein) were attached to polyethyleneimine and Geltrex-coated Seahorse plates by centrifugation in ionic medium, [41] containing 10 mM glucose. Attachment buffer was carefully replaced with ionic buffer containing DMSO, 100 µM iGP-1, 0.5 mM aminooxyacetate, or iGP-1 with aminooxyacetate, and either 10 mM pyruvate or 15 mM glucose. Plates were equilibrated for 20 min at 37°C then loaded into the instrument followed by measurement of basal respiration and injection of 5 µM FCCP (to induce maximal, uncoupled respiration) with 4 µg ⋅ mL^−1 oligomycin (to prevent compensatory reversal of ATP synthase). In some experiments, 10 mM oxamate was added with the FCCP/oligomycin to minimize regeneration of cytosolic NAD^+ by lactate dehydrogenase. Inhibition of the malate-aspartate shuttle was defined as the difference between maximal rates ± aminooxyacetate, expressed as % of control. Inhibition of the glycerol phosphate shuttle was the difference between maximal rates with aminooxyacetate ± iGP-1, as % of control.

T1 sequence (Q920L2 35-656): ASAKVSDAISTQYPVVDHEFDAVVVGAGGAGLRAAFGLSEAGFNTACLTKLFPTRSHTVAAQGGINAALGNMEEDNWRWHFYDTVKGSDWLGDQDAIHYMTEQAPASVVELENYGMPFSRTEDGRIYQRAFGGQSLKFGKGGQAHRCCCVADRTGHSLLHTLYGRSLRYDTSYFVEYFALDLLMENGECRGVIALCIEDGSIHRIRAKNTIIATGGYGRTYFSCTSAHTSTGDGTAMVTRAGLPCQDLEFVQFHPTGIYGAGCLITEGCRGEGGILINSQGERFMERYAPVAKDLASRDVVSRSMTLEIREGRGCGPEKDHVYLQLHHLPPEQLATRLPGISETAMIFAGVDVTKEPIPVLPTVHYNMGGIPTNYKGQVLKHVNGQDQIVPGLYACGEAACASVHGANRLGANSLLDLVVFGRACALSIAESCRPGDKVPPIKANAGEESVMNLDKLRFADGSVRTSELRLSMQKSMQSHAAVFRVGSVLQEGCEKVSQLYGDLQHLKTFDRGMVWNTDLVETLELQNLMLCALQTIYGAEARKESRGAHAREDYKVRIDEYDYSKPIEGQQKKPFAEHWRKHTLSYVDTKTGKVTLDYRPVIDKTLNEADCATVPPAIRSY
T1 sequence (P21913 31-282 partner): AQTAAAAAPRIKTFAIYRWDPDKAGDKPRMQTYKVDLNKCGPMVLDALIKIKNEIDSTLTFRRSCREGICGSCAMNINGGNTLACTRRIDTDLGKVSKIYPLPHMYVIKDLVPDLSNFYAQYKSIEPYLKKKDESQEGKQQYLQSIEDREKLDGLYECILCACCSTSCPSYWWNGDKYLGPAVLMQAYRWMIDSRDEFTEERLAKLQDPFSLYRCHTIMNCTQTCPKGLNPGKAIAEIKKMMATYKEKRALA
T1 sequence (Q641Z9 30-169 partner limits assumed): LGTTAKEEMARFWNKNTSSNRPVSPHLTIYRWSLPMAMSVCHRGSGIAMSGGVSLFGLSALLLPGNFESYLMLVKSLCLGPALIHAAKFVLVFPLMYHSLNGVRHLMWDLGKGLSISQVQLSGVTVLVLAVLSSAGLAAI
T1 sequence (Q6PCT8 57-159 partner): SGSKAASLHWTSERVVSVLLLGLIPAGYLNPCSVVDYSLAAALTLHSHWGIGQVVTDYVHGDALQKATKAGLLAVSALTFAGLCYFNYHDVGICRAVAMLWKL

IIF (% change from DMSO) [2] [%] | IIIQo (% change from DMSO) [5] [%] | IC50 (mGPDH; Fig. 4 structure/activity microplate assay, 0.08–80 µM, estimated, means of two replicates, read-out: mGPDH H2O2 production IC50) [µM] | mGPDH (% change from DMSO) (mGPDH; primary screen, ∼2.5 µM, average of duplicates, 16.7 mM glycerol phosphate, no added calcium) [%] | inhibition at 80 µM (mGPDH; read-out: mGPDH H2O2 production (% change at 80 μM)) [%] | Structure (SMILES) | ΔΨm with Glu + Mal + Nig (% change at 80 μM) ([1]; 80 μM, 5 mM glutamate, 5 mM malate, with nigericin) [%] | ΔΨm with Glu + Mal (% change at 80 μM) ([1]; 80 μM, 5 mM glutamate, 5 mM malate, without nigericin) [%] | ΔΨm (% change from DMSO) ([1]; primary screen, ∼2.5 µM, average of duplicates, glutamate and malate) [%] | ΔΨm with GP + Nig (% change at 80 μM) [3] [%] | IQ H2O2 production with 5 mM Suc (% change at 80 μM) ([4]; 80 μM) [%] | IQ (% change from DMSO) ([4]; primary screen, ∼2.5 µM, average of duplicates) [%] | IF/DH (% change from DMSO) [6] [%] | effect on basal or maximal respiration with pyruvate (cortical synaptosomes; 10 mM pyruvate) | effect on basal and maximal respiration with glucose (cortical synaptosomes; 15 mM glucose, no oxamate)
2.1 | 2.5 | 20 | -12.2 | 50 | O=C(O)CCC(=O)Nc1ccc(-c2nc3ccccc3o2)cc1 [iGP-2] | 18 | 107 | 0.8 | 1 | -57 | 0.759 | -2.6 |  | 
 |  |  |  |  | NOCC(=O)O [aminooxyacetate, reference compound] |  |  |  |  |  |  |  | no effect | inhibited
